From patent publication US5654290A, “Polyunsaturated fatty acid based drugs” (Institut National de la Sante et de la Recherche Medicale, priority 1992, dated 1997)
“And” between values parts separate entries of the source, which are not always exact repeats. Equal values may be shown once. Read-outs that look alike come from different tables or passages of the source. Each block holds one compound with its values, some of them ahead of it.

How the values were obtained:
[1] = target: T1, TXA2 /PGH2 receptor of the platelet membranes (Homo sapiens, UniProt P21731); test: Specific binding of tritiated SQ29,548 to the TXA2/PGH2 receptor of platelet membranes whose PC's or PE's are enriched in 18:2n-6 or DHA; conditions: for effect on the TXA2 /PGH2 receptor (dissociation constant of SQ29.548): platelet membranes enriched, in words
T1 construct: TXA2 /PGH2 receptor, to platelet membranes whose PC's or PE's are enriched either in 18:2n-6 or in DHA; from tissue; host or cells: platelet membranes (phospholipids exchanged with maize or endogenous platelet transfer protein)
T1 sequence (P21731 1-343): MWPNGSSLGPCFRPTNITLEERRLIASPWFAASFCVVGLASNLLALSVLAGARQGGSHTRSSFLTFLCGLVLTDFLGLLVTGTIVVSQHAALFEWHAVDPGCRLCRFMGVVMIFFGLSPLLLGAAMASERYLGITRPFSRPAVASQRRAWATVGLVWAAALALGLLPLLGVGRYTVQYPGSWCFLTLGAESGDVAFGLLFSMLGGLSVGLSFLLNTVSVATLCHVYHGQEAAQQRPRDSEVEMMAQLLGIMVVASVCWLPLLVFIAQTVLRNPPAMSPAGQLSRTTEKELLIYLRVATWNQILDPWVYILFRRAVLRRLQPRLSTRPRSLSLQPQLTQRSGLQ
Protocol: The diacyl-glycerophosphocholines of the platelet membranes were replaced either with 1-palmitoyl-2-docosa-hexaenoyl-glycerophosphocholine (bars with vertical stripes, "22:6n-3"), or with 1-palmitoyl-2-linoloyl-glycerophosphocholine (bars with horizontal stripes, "18:2n-6"), using the endogenous transfer protein of the platelets which is specific for the phosphatidylinositols and phosphatidylcholines. The control platelet membranes (black bars, "control") are obtained by incubation without addition of phospholipids. The data for the graph represent the mean±S.D. of three independent tests.
The diacyl-glycerophosphoethanolamines of the platelet membranes were replaced either with 1-palmitoyl-2-docosahexaenoyl-glycerophosphoethanolamine (bars with vertical stripes, "22:6n-3"), or with 1-palmitoyl-2-linoloyl-glycerophosphoethanolamine (bars with horizontal stripes "18:2n-6"), using the lipid transfer protein purified from maize. The control platelet membranes (black bars, "control") are obtained by incubation without addition of phospholipids. The data for the graph represent the mean±S.D. of three independent tests.
Preparations of esterified DHA into various classes of phospholipids were carried out using phospholipid transfer proteins in order to enrich, in a specific manner, the phosphatidylcholines (PC) and the phosphatidylethanolamines (PE) of the platelet membranes in linoleic acid (18:2n-6) and in DHA (49). In particular, the transfer protein (PT), which is specific for the PC's and purified from bovine liver, was used to modify the composition of molecular species of the PC's of erythrocytes (49).
In the procedure used in the present example, the endogenous quantity of platelet phospholipids is not altered by the transfer carried out by means of the maize or platelet PT; nevertheless, the phospholipids were enriched in 18:2n-6 or in DHA.
The influence of the fatty acids on the TXA2 /PGH2 receptor was established by measuring the specific binding of tritiated SQ29,548, a competitive antagonist of the TXA2 /PGH2 receptor, to platelet membranes whose PC's or PE's are enriched either in 18:2n-6 or in DHA.

[2] = test system: brain; test: Distribution of the radioactivity between the lipid classes of the brain after intravenous injection of lyso-PCDHA or non-esterified DHA; type: in vivo, rat; conditions: injection of non-esterified DHA
Text: (§1) The animal studied is a 20-day-old rat in which the cerebral lipid metabolism is at its peak.
(§2) The lyso-PC's are labelled on the fatty acid and the choline, attached to albumin and administered intravenously (50). […] It therefore appears that the lyso-PCDHA's attached to albumin constitute a particularly preferred form of supply of DHA to the developing brain.

[3] = test system: kidney; test: Capture by the kidney, in rats, of lyso-PCDHA and non-esterified DHA; type: in vivo; conditions: 20-day-old rat, intravenous; lyso-PCDHA vs non-esterified DHA
Text: FIG. 3 represents the variation of the radio-activity recovered in the total lipids: A from the brain, B from the kidney, C from the heart and D from the liver, after injecting tritiated DHA in free form (black circle) or in the form of 2-DHA-1-lyso-PC (black triangle).
as §1, §2

[4] = individual test, platelet membranes, PC's enriched
[5] = mean of three tests, PC's enriched
[6] = individual test, platelet membranes, PE's enriched
[7] = individual test, platelet membranes, PE's enriched, read-out: Kd of SQ 29.548
[8] = mean of three tests, PE's enriched
[9] = mean of three tests, PE's enriched, read-out: Kd of SQ 29.548

Structure (SMILES): CCCCC/C=C\C/C=C\CCCCCCCC(=O)OC(COC(=O)CCCCCCCCCCCCCCC)COP(=O)(O)OCCN (stereo not shown) [PE 18:2n-6, 1-palmitoyl-2-linoloyl-glycerophosphoethanolamine]
Bmax of SQ 29.548 [1, 6]: 1.89 pmol/mg prot. and 2.26 pmol/mg prot. and 2.07 pmol/mg prot.
Hill Coefficient [1, 6]: 0.94 and 1.00 and 1.05
Kd [1, 7]: 3.11 nM and 4.31 nM and 4.92 nM
Bmax of SQ 29.548 [1, 8]: 2.07 ± 0.19 pmol/mg prot.
Hill Coefficient [1, 8]: 1.00 ± 0.06
Kd [1, 9]: 4.11 ± 0.92 nM
effect on the TXA2 /PGH2 receptor (dissociation constant of SQ29.548) [1]: no effect on the receptor

Structure (SMILES): CC/C=C\C/C=C\C/C=C\C/C=C\C/C=C\C/C=C\CCC(=O)O [non-esterified DHA, docosahexaenoic acid, reference compound]
radioactivity in LN + AG of the brain ([2]; 2.5 min): 36.7 % of the radioactivity of the total lipids
radioactivity in PC of the brain ([2]; 2.5 min): 18.8 % of the radioactivity of the total lipids
radioactivity in PE of the brain ([2]; 2.5 min): 37.5 % of the radioactivity of the total lipids
radioactivity in PI of the brain ([2]; 2.5 min): 2.7 % of the radioactivity of the total lipids
radioactivity in PS of the brain ([2]; 2.5 min): 4.0 % of the radioactivity of the total lipids
radioactivity in LN + AG of the brain ([2]; 5 min): 19.0 % of the radioactivity of the total lipids
radioactivity in PC of the brain ([2]; 5 min): 23.2 % of the radioactivity of the total lipids
radioactivity in PE of the brain ([2]; 5 min): 48.1 % of the radioactivity of the total lipids
radioactivity in PI of the brain ([2]; 5 min): 5.1 % of the radioactivity of the total lipids
radioactivity in PS of the brain ([2]; 5 min): 4.6 % of the radioactivity of the total lipids
radioactivity in LN + AG of the brain ([2]; 7.5 min): 30.0 % of the radioactivity of the total lipids
radioactivity in PC of the brain ([2]; 7.5 min): 21.1 % of the radioactivity of the total lipids
radioactivity in PE of the brain ([2]; 7.5 min): 44.4 % of the radioactivity of the total lipids
radioactivity in PI of the brain ([2]; 7.5 min): 2.6 % of the radioactivity of the total lipids
radioactivity in PS of the brain ([2]; 7.5 min): 1.8 % of the radioactivity of the total lipids
radioactivity in LN + AG of the brain ([2]; 8 min): 31.6 % of the radioactivity of the total lipids
radioactivity in PC of the brain ([2]; 8 min): 19.6 % of the radioactivity of the total lipids
radioactivity in PE of the brain ([2]; 8 min): 40.7 % of the radioactivity of the total lipids
radioactivity in PI of the brain ([2]; 8 min): 3.8 % of the radioactivity of the total lipids
radioactivity in PS of the brain ([2]; 8 min): 4.3 % of the radioactivity of the total lipids
radioactivity in LN + AG of the brain ([2]; 15 min): 20.8 % of the radioactivity of the total lipids
radioactivity in PC of the brain ([2]; 15 min): 25.7 % of the radioactivity of the total lipids
radioactivity in PE of the brain ([2]; 15 min): 49.1 % of the radioactivity of the total lipids
radioactivity in PI of the brain ([2]; 15 min): 3 % of the radioactivity of the total lipids
radioactivity in PS of the brain ([2]; 15 min): 2.9 % of the radioactivity of the total lipids
radioactivity in LN + AG of the brain ([2]; 30 min): 20.4 % of the radioactivity of the total lipids
radioactivity in PC of the brain ([2]; 30 min): 24.8 % of the radioactivity of the total lipids
radioactivity in PE of the brain ([2]; 30 min): 48.4 % of the radioactivity of the total lipids
radioactivity in PI of the brain ([2]; 30 min): 3.4 % of the radioactivity of the total lipids
radioactivity in PS of the brain ([2]; 30 min): 2.9 % of the radioactivity of the total lipids
radioactivity in LN + AG of the brain ([2]; 60 min): 12.5 % of the radioactivity of the total lipids
radioactivity in PC of the brain ([2]; 60 min): 24.3 % of the radioactivity of the total lipids
radioactivity in PE of the brain ([2]; 60 min): 54.1 % of the radioactivity of the total lipids
radioactivity in PI of the brain ([2]; 60 min): 2.8 % of the radioactivity of the total lipids
radioactivity in PS of the brain ([2]; 60 min): 6.3 % of the radioactivity of the total lipids
capture by the kidney [3]: captures the two forms of supply in essentially the same manner

Structure (SMILES): CCCCC/C=C\C/C=C\CCCCCCCC(=O)OC(COC(=O)CCCCCCCCCCCCCCC)COP(=O)([O-])OCC[N+](C)(C)C (stereo not shown) [PC 18:2n-6, 1-palmitoyl-2-linoloyl-glycerophosphocholine]
Kd ([1]; Kd of SQ 29.548, individual test, platelet membranes, PC's enriched): 4.64 nM and 3.16 nM and 4.05 nM
Kd ([1]; Kd of SQ 29.548, mean of three tests, PC's enriched, (a) p < 0.05 compared with the control and with PC 18:2n6 for PC 22:6n-3): 3.95 ± 0.75 nM
Bmax of SQ 29.548 [1, 4]: 1.83 pmol/mg prot. and 1.91 pmol/mg prot. and 2.41 pmol/mg prot.
Hill Coefficient [1, 4]: 1.00 and 0.94 and 0.90
Bmax of SQ 29.548 [1, 5]: 2.05 ± 0.31 pmol/mg prot.
Hill Coefficient [1, 5]: 0.95 ± 0.05
effect on the TXA2 /PGH2 receptor (dissociation constant of SQ29.548) [1]: no effect on the receptor

Now from value to compound, other results behind:

Hill Coefficient [1, 4]: 0.91 and 1.00 and 0.94
Kd ([1]; individual test, platelet membranes, PC's enriched, read-out: Kd of SQ 29.548): 5.69 nM and 8.56 nM and 7.05 nM
Bmax of SQ 29.548 [1, 5]: 2.48 ± 0.43 pmol/mg prot.
Hill Coefficient [1, 5]: 0.95 ± 0.05
Kd ([1]; mean of three tests, PC's enriched, (a) p < 0.05 compared with the control and with PC 18:2n6 for PC 22:6n-3, read-out: Kd of SQ 29.548): 7.1 ± 1.44 nM
Structure (SMILES): CC/C=C\C/C=C\C/C=C\C/C=C\C/C=C\C/C=C\CCC(=O)OC(COC(=O)CCCCCCCCCCCCCCC)COP(=O)([O-])OCC[N+](C)(C)C (stereo not shown) [PC 22:6n-3, 1-palmitoyl-2-docosahexaenoyl-glycerophosphocholine]
Bmax of SQ 29.548 [1, 4]: 2.94 pmol/mg prot. and 2.09 pmol/mg prot. and 2.40 pmol/mg prot.
effect on the TXA2 /PGH2 receptor (dissociation constant of SQ29.548) [1]: significantly increasing the dissociation constant of SQ29.548

Hill Coefficient [1, 6]: 0.95 and 1.02
Kd [1, 7]: 2.92 nM and 4.61 nM and 4.63 nM
Bmax of SQ 29.548 [1, 8]: 1.86 ± 0.17 pmol/mg prot.
Hill Coefficient [1, 8]: 1.00 ± 0.04
Kd [1, 9]: 4.05 ± 0.98 nM
effect on the TXA2 /PGH2 receptor (dissociation constant of SQ29.548) [1]: no effect on the receptor
Structure (SMILES): CC/C=C\C/C=C\C/C=C\C/C=C\C/C=C\C/C=C\CCC(=O)OC(COC(=O)CCCCCCCCCCCCCCC)COP(=O)(O)OCCN (stereo not shown) [PE 22:6n-3, 1-palmitoyl-2-docosahexaenoyl-glycerophosphoethanolamine]
Bmax of SQ 29.548 [1, 6]: 1.67 pmol/mg prot. and 1.99 pmol/mg prot. and 1.91 pmol/mg prot.
